Experimental data published in patent US20240083885A1, “COMPOSITIONS AND METHODS FOR INHIBITING M PRO PROTEASE ACTIVITY AND FOR PREVENTING AND TREATING SARS-COV-2 INFECTION” (priority 2020, published 2024).
Like-named read-outs stand apart in the source and are kept apart here.

Columns and labels:
SARS-CoV-2 M^pro = SARS-CoV-2 M^pro (Severe acute respiratory syndrome coronavirus 2 (2019-nCoV) (SARS-CoV-2), UniProt P0DTD1); assay: biochemical
in vitro [1] = settings: African green monkey
SARS-CoV-2 = assay: microbe, parasite or virus in culture; type: cell-based; settings: for EC50: Severe acute respiratory syndrome coronavirus 2, Vero C1008
Vero E6 cells = assay: Cytotoxicity in Vero E6 cells (neutral red uptake); settings: read-out: CC50 in Vero E6 cells
in vitro [2] = settings: human, CC50 in Calu-3 cells
[3] = read-out: SARS-COV-2 main protease enzymatic inhibition IC50
[4] = Vero E6 cells, immunofluorescence assay, read-out: SARS-CoV-2 antiviral assay EC50
[5] = read-out: SARS-COV-2 antiviral activity using immunofluorescence assay EC50
[6] = read-out: antiviral EC50 against SARS-CoV-2 in Vero E6 cells
[7] = read-out: IC50 against SARS-CoV-2 M^pro

## C[C@H](NC(=O)C(c1cccnc1)N(C(=O)c1ccco1)c1ccc(N2CCCCC2)cc1)c1ccccc1 (some centres unmarked) [Jun8-97-1]
SARS-CoV-2 M^pro; [3]
  IC50: 5.46 µM

## O=C(NC1CCCCC1)C(c1cccnc1)N(C(=O)c1ccco1)c1ccc(-c2ccccc2)cc1 (centres unmarked) [Jun9-3-3]
SARS-CoV-2 M^pro; [3]
  IC50: 2.68 µM

## O=C(NC1CCCC1)C(c1cccnc1)N(C(=O)c1c[nH]cn1)c1ccc(-c2ccccc2)cc1 (centres unmarked) [Jun9-3-5]
SARS-CoV-2 M^pro; [3]
  IC50: 7.27 µM

## O=C(NC1CCCCC1)C(c1cccnc1)N(C(=O)c1c[nH]cn1)c1ccc(-c2ccccc2)cc1 (centres unmarked) [Jun9-4-2]
SARS-CoV-2 M^pro; [3]
  IC50: 5.82 µM

## C[C@H](NC(=O)C(c1cnccn1)N(C(=O)c1ccco1)c1ccc(-c2ccccc2)cc1)c1ccccc1 (some centres unmarked) [Jun9-4-4]
In vitro [1]; Vero E6 Cytotoxicity CC50 (μM)
  CC50 at 5 days: > 200 µM
SARS-CoV-2
  Selectivity index SI CC50/EC50: >243.9
SARS-CoV-2; [4]
  EC50: 820 ± 560 nM
SARS-CoV-2; [5]
  EC50: 1430 nM
SARS-CoV-2; [6]
  EC50: 820 to 4540 nM
SARS-CoV-2 M^pro; [7]
  IC50: 0.28 ± 0.07 µM
Vero E6 cells
  CC50: > 100 µM

## C[C@H](NC(=O)C(c1cnccn1)N(C(=O)c1c[nH]cn1)c1ccc(-c2ccccc2)cc1)c1ccccc1 (some centres unmarked) [Jun9-5-2]
In vitro [1]; Vero E6 Cytotoxicity CC50 (μM)
  CC50 at 5 days: 148 ± 13.9 µM
SARS-CoV-2
  Selectivity index SI CC50/EC50: 32.6
SARS-CoV-2; [4]
  EC50: 4540 ± 690 nM
SARS-CoV-2; [5]
  EC50: 9890 nM
SARS-CoV-2; [6]
  EC50: 820 to 4540 nM
SARS-CoV-2 M^pro; [7]
  IC50: 0.67 ± 0.15 µM
Vero E6 cells
  CC50: > 100 µM

## O=C(NCC(c1ccccc1)c1ccccc1)C(c1cccnc1)N(C(=O)c1ccco1)c1ccc(-c2ccccc2)cc1 (centres unmarked) [Jun9-5-3]
SARS-CoV-2 M^pro; [3]
  IC50: 1.48 µM

## C[C@H](NC(=O)C(c1cccnc1)N(C(=O)c1ccco1)c1ccc(OC(C)(C)C)cc1)c1ccccc1 (some centres unmarked) [Jun9-5-4]
SARS-CoV-2 M^pro; [3]
  IC50: 21.9 µM

## C[C@H](NC(=O)C(c1cccnc1)N(C(=O)c1ccco1)c1ccc(-c2ccccn2)cc1)c1ccccc1 (some centres unmarked) [Jun9-6-4]
SARS-CoV-2 M^pro; [3]
  IC50: 1.81 µM

## O=C(NCCCc1ccccc1)C(c1cccnc1)N(C(=O)c1ccco1)c1ccc(-c2ccccc2)cc1 (centres unmarked) [Jun9-12-2]
In vitro [1]; Vero E6 Cytotoxicity CC50 (μM)
  CC50 at 5 days: > 200 µM
SARS-CoV-2
  Selectivity index SI CC50/EC50: >98.0
SARS-CoV-2; [4]
  EC50: 2040 ± 1080 nM
SARS-CoV-2; [5]
  EC50: 2130 nM
SARS-CoV-2; [6]
  EC50: 820 to 4540 nM
SARS-CoV-2 M^pro; [3]
  IC50: 1.06 µM
Vero E6 cells
  CC50: > 100 µM

## CC(C)(C)NC(=O)C(c1cnccn1)N(C(=O)c1ccco1)c1ccc(C(C)(C)C)cc1 (centres unmarked) [Jun9-17-2]
SARS-CoV-2 M^pro; [3]
  IC50: 4.93 µM

## O=C(NC1CCCC1)C(c1cccnc1)N(C(=O)CCl)c1ccc(-c2ccccc2)cc1 (centres unmarked) [Jun9-55-1, 2-(N-{[1,1′-biphenyl]-4-yl}-2-chloroacetamido)-N-cyclopentyl-2-(pyridin-3-yl)acetamide]
In vitro [1]; CC50 in Vero E6 cells
  CC50 at 5 days: < 11 µM
In vitro [2]
  CC50 at 5 days: < 2000 nM

## C[C@H](NC(=O)[C@H](c1cccnc1)N(C(=O)C(Cl)Cl)c1ccc(-c2ccccc2)cc1)c1ccccc1 [Jun9-62-2S, N-([1,1′-biphenyl]-4-yl)-2,2-dichloro-N-((S)-2-oxo-2-(((S)-1-phenylethyl)amino)-1-(pyridin-3-yl)ethyl)acetamide]
SARS-CoV-2 M^pro; IC50 against SARS-CoV-2 M^pro
  IC50: > 20 µM

## CC(C)(C)c1ccc(N(C(=O)c2ccco2)C(C(=O)Nc2ccc(F)cc2)c2cccnc2)cc1 (centres unmarked) [Jun9-88-3]
SARS-CoV-2 M^pro; [3]
  IC50: 7.81 µM

## COc1ccc(NC(=O)C(c2cccnc2)N(C(=O)c2ccco2)c2ccc(C(C)(C)C)cc2)cc1 (centres unmarked) [Jun9-88-4]
SARS-CoV-2 M^pro; [3]
  IC50: 7.49 µM

## C[C@H](NC(=O)[C@H](c1cccnc1)N(C(=O)C(Br)(Br)Br)c1ccc(-c2ccccc2)cc1)c1ccccc1 [Jun9-88-6S, N-([1,1′-biphenyl]-4-yl)-2,2,2-tribromo-N-((S)-2-oxo-2-(((S)-1-phenylethyl)amino)-1-(pyridin-3-yl)ethyl)acetamide]
In vitro [1]; CC50 in Vero E6 cells
  CC50 at 5 days: 5.99 µM
SARS-CoV-2 M^pro; [7]
  IC50: 7.16 µM

## C[C@H](NC(=O)[C@H](c1cccnc1)N(C(=O)C(Br)Br)c1ccc(-c2ccccc2)cc1)c1ccccc1 [Jun9-89-2S, N-([1,1′-biphenyl]-4-yl)-2,2-dibromo-N-((S)-2-oxo-2-(((S)-1-phenylethyl)amino)-1-(pyridin-3-yl)ethyl)acetamide]
In vitro [1]; CC50 in Vero E6 cells
  CC50 at 5 days: 4.57 µM
SARS-CoV-2 M^pro; IC50 against SARS-CoV-2 M^pro
  IC50: 2.44 µM

## C[C@H](NC(=O)C(c1cccnc1)N(C(=O)C(Cl)(Cl)Br)c1ccc(-c2ccccc2)cc1)c1ccccc1 (stereo partly drawn) [Jun9-89-3, N-([1,1′-biphenyl]-4-yl)-2-bromo-2,2-dichloro-N-(2-oxo-2-(((S)-1-phenylethyl)amino)-1-(pyridin-3-yl)ethyl)acetamide]
In vitro [1]; CC50 in Vero E6 cells
  CC50 at 5 days: 32.4 µM
SARS-CoV-2 M^pro; [7]
  IC50: 1.2 µM

## C[C@H](NC(=O)[C@H](c1cccnc1)N(C(=O)C(Cl)(Br)Br)c1ccc(-c2ccccc2)cc1)c1ccccc1 [Jun9-89-4S, N-([1,1′-biphenyl]-4-yl)-2,2-dibromo-2-chloro-N-((S)-2-oxo-2-(((S)-1-phenylethyl)amino)-1-(pyridin-3-yl)ethyl)acetamide]
SARS-CoV-2 M^pro; [7]
  IC50: 9.04 µM

## C[C@H](NC(=O)[C@H](c1cccnc1)N(C(=O)C(Cl)Cl)c1ccc(-c2ccccc2)cc1)c1ccc(Br)cc1 [Jun9-90-3S, N-([1,1′-biphenyl]-4-yl)-N-((S)-2-(((S)-1-(4-bromophenyl)ethyl)amino)-2-oxo-1-(pyridin-3-yl)ethyl)-2,2-dichloroacetamide]
SARS-CoV-2 M^pro; IC50 against SARS-CoV-2 M^pro
  IC50: > 20 µM

## C[C@@H](CCc1ccccc1)NC(=O)[C@H](c1cccnc1)N(C(=O)C(Cl)Cl)c1ccc(-c2ccccc2)cc1 [Jun9-90-4S, N-([1,1′-biphenyl]-4-yl)-2,2-dichloro-N-((S)-2-oxo-2-(((S)-4-phenylbutan-2-yl)amino)-1-(pyridin-3-yl)ethyl)acetamide]
SARS-CoV-2 M^pro; IC50 against SARS-CoV-2 M^pro
  IC50: > 20 µM

## C=C(Cl)C(=O)N(c1ccc(-c2ccccc2)cc1)C(C(=O)N[C@@H](C)c1ccccc1)c1cccnc1 (stereo partly drawn) [Jun10-38-2, N-{[1,1′-biphenyl]-4-yl}-2-chloro-N-({[(1S)-1-phenylethyl]carbamoyl}(pyridin-3-yl)methyl)prop-2-enamide]
SARS-CoV-2 M^pro; [7]
  IC50: 4.22 µM
